Values of other authors as cited in patent US20110034442A1, “Use and Methods of Use for an Antagonist of the Serotin3 Receptor (5-HT3) and a Selective Modulator of Chloride Channels for the Treatment of Addiction to or Dependence on Medicines/Drugs or Nervous System Disorders” (priority 2007, published 2011).
Structures can show the parent of a compound that is named as a salt. Where two headings read alike, the source gives them in different places.

Assays:
[1] = flumazenil 10 mg/kg, ondansetron 0.3 mg/kg, R(−)-alpha-metylhistamine 10 mg/kg
mice [2] = settings: 0.1 and 1 mg/kg PO
mice [3] = system: mice
rats [4] = system: rats
early-onset alcoholism = settings: 16 microg/kg twice daily; early-onset compared with late-onset alcoholism
[5] = system: adolescents who had alcohol dependence; settings: 4 microg/kg b.i.d.
[6] = system: alcohol dependent subjects; settings: 4 microg/kg b.i.d.
[7] = not given; remark: listed apart in the source
[8] = system: cocaine-dependent men and women
[9] = not given; remark: listed apart in the source
healthy human volunteers = settings: pretreatment 0.15 mg/kg i.v.; oral D-amphetamine 0.5 mg/kg; subjects with robust responses
Wistar rats = settings: 0.1, 0.5, 1, 2 mg/kg intra-peritoneally, 30 minutes prior to d-amphetamine
[10] = pre-treatment 12 mg orally over 24 h; amphetamine 15 mg orally
healthy males = settings: pretreatment, nine healthy males
5-HT3 receptors = target: T1, 5-HT3 receptors (Homo sapiens, UniProt P46098); settings: in vivo
T1 sequence (P46098 24-478): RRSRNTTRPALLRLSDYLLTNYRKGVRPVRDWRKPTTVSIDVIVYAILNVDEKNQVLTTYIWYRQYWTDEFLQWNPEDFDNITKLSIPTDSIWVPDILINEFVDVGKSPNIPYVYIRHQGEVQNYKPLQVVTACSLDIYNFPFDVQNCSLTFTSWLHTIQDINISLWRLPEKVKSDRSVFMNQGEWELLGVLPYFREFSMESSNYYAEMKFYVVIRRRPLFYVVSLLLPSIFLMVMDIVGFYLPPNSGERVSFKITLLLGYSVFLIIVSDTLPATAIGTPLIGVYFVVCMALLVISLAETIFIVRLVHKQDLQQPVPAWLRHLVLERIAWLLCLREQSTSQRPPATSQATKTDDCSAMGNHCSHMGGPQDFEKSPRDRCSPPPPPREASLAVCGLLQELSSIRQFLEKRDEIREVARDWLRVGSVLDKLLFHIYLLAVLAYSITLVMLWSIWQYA

[11] = in vivo
[12] = in vivo; remark: listed apart in the source
K+-evoked [3H]ACh efflux = settings: slices from rat entorhinal cortex preloaded with [3H]choline
[13] = in contrast to naltrexone
[14] = pH 7.4
[15] = system: alpha(4)-subunit gene expression; settings: ethanol withdrawal
rat = settings: elevated plus maze
[16] = system: alcohol-dependent subjects; settings: 15 alcohol-dependent subjects
rats [17] = settings: rats receiving combined cocaine-diazepam compared to cocaine alone or diazepam alone
acetylcholine release = settings: GABA(A) receptor antagonist given with ondansetron; rat frontal cortex
[18] = in vivo; remark: listed apart in the source

C[C@@H](N)Cc1c[nH]cn1 [R(−)-alpha-metylhistamine]
attenuation of scopolamine-induced deficits [1]: neither flumazenil 10 mg/kg, ondansetron 0.3 mg/kg nor R(−)-alpha-metylhistamine 10 mg/kg attenuated

Cc1nccn1CC1CCc2c(c3ccccc3n2C)C1=O (racemic) [ondansetron, (±)1,2,3,9-tetrahydro-9-methyl-3-[(2-methyl-1H-imidazol-1-yl)methyl]-4H-carbazol-4-one, monohydrochlororide, dehydrate]
solubility in water and normal saline (racemic form, water and normal saline): soluble
number of shocks taken (mice [2]): increased
anxiolytic action compared to naive mice (mice [3]; 0.01, 0.1 and 1 mg/kg i.p.): significant anxiolytic action
potency compared to diazepam (mice [3]; diazepam 1 mg/kg): less potent
changes of the self-stimulation (male rats): did not cause any substantial changes
anxiolytic action during withdrawal from chronic chlordiazepoxide (rats [4]; rats (Rezazadeh 1992)): mixed results
efficacy in reversing various aspects of benzodiazepine withdrawal (rats [4]; rats, three tests, flumazenil given during chronic chlordiazepoxide (Prather 1993)): Inconsistent results
alleviation of overall mood disturbance, fatigue, vigor, confusion/bewilderment and depression (early-onset alcoholism): greater therapeutic efficacy
craving, Adolescent Obsessive-Compulsive Drinking Scale [5]: reduction
drinks per day ([5]; 8 weeks): significant decrease
safety and tolerability ([5]; oral, 8 weeks, 12 adolescents): safe and well tolerated
overall craving ([6]; early-onset alcoholics): reduced overall craving significantly
overall craving ([6]; late-onset alcoholics, compared with placebo): not late-onset alcoholics
cocaine intake the following day ([7]; administered 30 min before the cocaine session): no effect
cocaine self-administration the following day ([7]; given 3.5 h after intravenous cocaine self-administration): attenuate self-administration the following day
cocaine self-administration and sensitization ([7]; given after each second cocaine regimen dose or during the second withdrawal period): inhibited
tolerability, adverse events ([8]; 0.25 mg, 1.0 mg, or 4.0 mg twice daily, 10 weeks): well tolerated, causing no serious adverse events
dropout rate among all treatment groups ([8]; 4.0 mg twice daily): lowest dropout rate
percentage of participants with a cocaine-free week compared with the placebo group ([8]; 4.0 mg twice daily, p=0.02): greater rate of improvement
expression of sensitization and tolerance ([9]; administered during withdrawal from intermittent and continuous cocaine): blockade of the expression of sensitization and tolerance
development of behavioral tolerance ([9]; continuous cocaine group): attenuated the development of behavioral tolerance
development of sensitization ([9]; daily injections with cocaine, inverted U-shape dose-response curve): significantly blocked the development of sensitization
subsequent behavioral response to cocaine ([9]; daily injections, saline control subjects): no consistent or significant effect
activation-euphoria responses to D-amphetamine (healthy human volunteers): attenuated responses
average stereotypic score (Wistar rats): decreased
mean number of head dippings and crossings in the hole board test (Wistar rats): significantly decreased
amphetamine-induced decrease in self-ratings of hunger [10]: significantly attenuated
effects of amphetamine on blood pressure or psychomotor performance tests (healthy males): not on blood pressure or psychomotor performance tests
effects of amphetamine on hunger and subjective state (healthy males): attenuated
antagonism of the effects of amphetamine (5-HT3 receptors): did not antagonize the effects of amphetamine
increased behavioral suppression following withdrawal from ethanol, nicotine and cocaine [11]: highly effective inhibitor
ensuing facilitation of self-stimulation after high-dose nicotine [12]: not the ensuing facilitation
initial depression of self-stimulation by high-dose nicotine [12]: reduced the initial depression
self-stimulation [12]: no effect
K+-evoked [3H]ACh efflux (K+-evoked [3H]ACh efflux): concentration-dependent increase
attenuation of scopolamine-induced deficits [1]: neither flumazenil 10 mg/kg, ondansetron 0.3 mg/kg nor R(−)-alpha-metylhistamine 10 mg/kg attenuated

C=C1CC[C@@]2(O)[C@H]3Cc4ccc(O)c5c4[C@@]2(CCN3CC2CC2)[C@H]1O5 [nalmefene, 17(cyclopropylmethyl)-4,5-alpha-epoxy-6-methylenemorphinan-3,14-diol,hydrochloride salt]
hepatocellular injury [13]: does not cause hepatocellular injury

CCOC(=O)c1ncn2c1CN(C)C(=O)c1cc(F)ccc1-2 [flumazenil, ethyl 8-fluoro-5,6-dihydro-5-methyl-6-oxo-4H-imidazo[1,5-a](1,4)benzodiazepine-3-carboxylate]
octanol:buffer partition coefficient [14]: 14 to 1
solubility in acidic aqueous solutions (acidic aqueous solutions): slightly soluble
solubility in water (water): insoluble
changes of the self-stimulation (male rats): did not cause any substantial changes
up-regulation of alpha(4)-subunit gene expression [15]: selectively prevented the up-regulation
anxiolytic effects (rat): did not produce any anxiolytic effects
decrease in open arm entries produced by withdrawal from ethanol treatment (rat): blocked these changes
anxiolytic or anxiogenic effect [16]: neither anxiolytic nor anxiogenic
seizures and incidence of death (rats [17]): unmask seizures and increase the incidence of death
peak increase of acetylcholine release over basal levels (acetylcholine release): 259%
K+-evoked [3H]ACh efflux (K+-evoked [3H]ACh efflux): enhanced
attenuation of scopolamine-induced deficits [1]: neither flumazenil 10 mg/kg, ondansetron 0.3 mg/kg nor R(−)-alpha-metylhistamine 10 mg/kg attenuated

CN1[C@@H]2CC[C@H]1C[C@@H](OC(=O)c1cc(Cl)cc(Cl)c1)C2 [MDL 72222]
K+-evoked [3H]ACh efflux (K+-evoked [3H]ACh efflux): concentration-dependent increase

CN1C2CCCC1CC(NC(=O)c1nn(C)c3ccccc13)C2 (centres unmarked) [granisetron]
K+-evoked [3H]ACh efflux (K+-evoked [3H]ACh efflux): concentration-dependent increase

O=Cc1c(N2CCN(Cc3ccc4c(c3)OCO4)CC2)[nH]c2ccccc12 [VA21B7, 3-[2-(4′-piperonylpiperazinyl)indolyl]carboxaldehyde]
release of suppressed behavior [18]: able to release suppressed behavior
